Test results published in US20120238488A1, “COMPOUNDS AND METHODS FOR TREATING NEOPLASIA” (priority 2009, published 2012).
Read-outs that look alike come from different tables or passages of the source.

Tests used:
H160 (Lung) = experiment: SRB assay, H160; type: cell-based, human; conditions: 48 h; for TGI / GI50: H160, SRB; for CC50 / GI50: Homo sapiens; for CC50: read-out: LC50
Procedure: (§1) SRB assays were performed according to standard National Cancer Institute Guidelines. Briefly, human tumor cells from different cancer panels were seeded into 96 well plates in 100 μL (plating densities ranging from 5-40,000 cells/well depending on the doubling time of individual cell lines) in serum-containing media for twenty-four hours prior to the addition of the compounds to be assayed. After 24 hours, one plate of each cell line was fixed in situ with trichloroacetic acid (TCA). The fixed slides were used to determine the cell population for each cell line at the time of drug addition (Tz). Each compound to be tested was solubilized in DMSO and the desired concentration was then added to the medium and diluted serially 1:10 to provide a total of five or ten drug concentrations plus control (in a final volume of 200 μL). The starting dose before any dilution was 100 uM for all compounds.
(§2) Following drug addition, each culture was incubated for forty-eight hours. The assay was terminated with the addition of cold TCA. The supernatant was discarded, and the plates were washed with tap water and air dried. Sulforhodamine B (SRB) solution was then added to each well. After staining, the bound stain was solubilized and the absorbance was read on an automated plate reader at a wavelength of 515 nm.
(§3) Using the absorbance measurements [time zero, (Tz), control growth, (C), and test growth in the presence of drug at the ten concentration levels (Ti)], the percentage growth was calculated at each of the drug concentrations levels. Percentage growth inhibition was calculated as:
(§4) [(Ti−Tz)/(C−Tz)]×100 for concentrations for which Ti>/=Tz
(§5) [(Ti−Tz)/Tz]×100 for concentrations for which Ti<Tz.
(§6) Three dose response parameters were calculated for each experimental agent. Growth inhibition of 50% (GI50) was calculated from [(Ti−Tz)/(C−Tz)]×100=50, which was the drug concentration resulting in a 50% reduction in the net protein increase (as measured by SRB staining) in control cells during the drug. The drug concentration resulting in total growth inhibition (TGI) was calculated from Ti=Tz. The LC50 (concentration of drug resulting in a 50% reduction in the measured protein at the end of the drug treatment as compared to that at the beginning) indicating a net loss of cells following treatment was calculated from [(Ti−Tz)/Tz]×100=−50.
(§7) Values were calculated for each of these three parameters when the level of activity was reached; however, if the effect was not reached or was exceeded, the value for that parameter was expressed as greater or less than the maximum or minimum concentration tested.
(§8) Table 4 summarizes results characterizing the effects of compound Nos. 120, 12, 61, 1, and 56 on GI50, which measures the cell growth inhibitory power of the compound, TGI, which measures cytostatic effect (TGI) and LC50, which signifies cytotoxic effect. Each of these parameters in Table 4 was calculated in a sulforhodamine B (SRB) assay, which provides a colorimetric measure of a compound's anti-cancer activity. SRB assays were performed with compounds of the invention in 22 different cell lines (shaded in light gray in Table 4), which represent nine different tumor panels (lung, melanoma, ovary, prostate, CNS, breast, pancreas colon and renal). Ouabain and digoxin were used as controls. Paclitaxel was added as a non-Na^+K^+-ATPase inhibitor control.

LOXIMVI (Melanoma) = experiment: SRB assay, LOXIMVI; type: cell-based, human; conditions: 48 h; for CC50 / GI50: Homo sapiens, LOX IMVI; for CC50: read-out: LC50; for GI50 / TGI: LOXIMVI, SRB
Procedure: as §1, §2, §3, §4, §5, §6, §7, §8

IGROV1 (Ovary) = experiment: SRB assay, IGROV1; type: cell-based, human; conditions: for CC50 / GI50: Homo sapiens; for CC50: IGROV-1, 48 h, read-out: LC50; for GI50: IGROV-1; for GI50 / TGI: IGROV1, SRB, 48 h
Procedure: as §1, §2, §3, §4, §5, §6, §7, §8

U251 (CNS) = experiment: SRB assay, U251; type: cell-based, human; conditions: for CC50 / GI50: Homo sapiens; for CC50: read-out: LC50
Procedure: as §1, §2, §3, §4, §5, §6, §7, §8

MCF7 (Breast) = experiment: SRB assay, MCF7; type: cell-based, human; conditions: for CC50 / GI50: Homo sapiens; for CC50: MCF7, 48 h, read-out: LC50; for GI50 / TGI: MCF7, SRB, 48 h
Procedure: as §1, §2, §3, §4, §5, §6, §7, §8

HCT15 (Colon) = experiment: SRB assay, HCT15; type: cell-based, human; conditions: for TGI / GI50: HCT15, SRB, 48 h; for CC50 / GI50: Homo sapiens; for CC50: HCT-15, 48 h, read-out: LC50; for GI50: HCT-15
Procedure: as §1, §2, §3, §4, §5, §6, §7, §8

[1] = tested on: 22 different cell lines, nine tumor panels (lung, melanoma, ovary, prostate, CNS, breast, pancreas colon and renal); experiment: SRB assay, all tumor cell line panels (summary statements); type: cell-based, human; conditions: for GI50 action in all cell line panels tested (in words): SRB; for viability and/or cell proliferation of neoplastic cell lines: lung, breast, CNS, colon, prostate, ovary, pancreas, kidney and melanoma lines, including a multidrug resistant cell line
Procedure: as §1, §2, §3
Three dose response parameters were calculated for each experimental agent. […] The drug concentration resulting in total growth inhibition (TGI) was calculated from Ti=Tz. The LC50 (concentration of drug resulting in a 50% reduction in the measured protein at the end of the drug treatment as compared to that at the beginning) indicating a net loss of cells following treatment was calculated from [(Ti−Tz)/Tz]×100=−50.
Each of these parameters in Table 4 was calculated in a sulforhodamine B (SRB) assay, which provides a colorimetric measure of a compound's anti-cancer activity. SRB assays were performed with compounds of the invention in 22 different cell lines (shaded in light gray in Table 4), which represent nine different tumor panels (lung, melanoma, ovary, prostate, CNS, breast, pancreas colon and renal). […] Paclitaxel was added as a non-Na^+K^+-ATPase inhibitor control.

[2] = tested on: HCT116 colon cancer, PC3 and DU145 prostate cancer cell lines; experiment: MTT proliferation/viability assay; type: cell-based; conditions: 72 h, FIGS. 1A-1D, HCT116 only compound 120
Procedure: All assays were performed in triplicate.
The effect of the different compounds on the proliferation and viability of cancer cell lines was tested. Compound 120 was tested in one colon cancer cell line (HCT116), and compound Nos. 120, 12, 61, 1, and 56 were tested in two prostate cancer cell lines (PC3 and DU145). […] This colorimetric assay uses the reduction of MTT to formazan as a measure of metabolic activity. Untreated cells cultured in the presence of serum were used as a negative control.

SU8686 (Pancreas) = experiment: SRB assay, SU8686; type: cell-based, human; conditions: for CC50 / GI50: Homo sapiens; for CC50: SU.86.86, 48 h, read-out: LC50; for GI50: SU.86.86; for GI50 / TGI: SU8686, SRB, 48 h
Procedure: as §1, §2, §3, §4, §5, §6, §7, §8

[3] = tested on: A549 xenografts (lung carcinoma); experiment: A549 xenograft anti-tumor activity; type: in vivo, Nod/Scid mice; conditions: A549 xenografts, compound 56 20 mgk, paclitaxel 18 mgk
Procedure: All administrations were intraperitoneal.
At day 20 post inoculation (dpi), mean tumor volume was measured at 117.6 mm^3.
Compound 56 was administered intraperitoneallly using a [(QD×5;2) ×5] scheme. Paclitaxel, used as a positive control, was injected twice weekly for 5 cycles (Tuesday & Friday).

[4] = U-251, U251, SRB, 48 h, read-out: GI50

Structure (SMILES) | TGI (H160 (Lung)) | CC50 (H160 (Lung)) | GI50 (H160 (Lung)) | CC50 (LOXIMVI (Melanoma)) | GI50 (LOXIMVI (Melanoma)) | TGI (LOXIMVI (Melanoma)) | CC50 (IGROV1 (Ovary)) | GI50 (IGROV1 (Ovary)) | TGI (IGROV1 (Ovary)) | CC50 (U251 (CNS); U-251, 48 h) | GI50 (U251 (CNS); [4]) | CC50 (MCF7 (Breast)) | GI50 (MCF7 (Breast)) | TGI (MCF7 (Breast)) | TGI (HCT15 (Colon)) | CC50 (HCT15 (Colon)) | GI50 (HCT15 (Colon)) | GI50 action in all cell line panels tested (in words) [1] | viability and/or cell proliferation of neoplastic cell lines [1] | inhibition of cell proliferation and viability (MTT) [2] | other results
C[C@]12CCC(=NOCCN)C=C1CCC1C2CC[C@]2(C)C(=O)CCC12 (stereo partly drawn) [Compound 12, (10R,13S)-3-(2-aminoethoxyimino)-10,13-dimethyl-2,3,7,8,9,10,11,12,13,14,15,16-dodecahydro-1H-cyclopenta[a]phenanthren-17(6H)-one] | 5.86 µM | 8.73 µM | 2.99 µM | ≥ 117 µM | 0.66 µM | 24.06 µM | 68.4 µM | 5.37 µM | 12.38 µM | 8.61 µM | 3.09 µM | 9.47 µM | 3.79 µM | 6.63 µM | 6.70 µM | 9.61 µM | 3.79 µM | mostly single-digit micromolar GI50 action | reduced the viability and/or cell proliferation | strong inhibition of cell proliferation and viability | TGI (U251 (CNS); U251, SRB, 48 h): 5.85 µM
C[C@H]1O[C@@H](O[C@H]2[C@@H](O)C[C@H](O[C@H]3[C@@H](O)C[C@H](O[C@H]4CC[C@@]5(C)[C@H](CC[C@@H]6[C@@H]5C[C@@H](O)[C@]5(C)[C@@H](C7=CC(=O)OC7)CC[C@]65O)C4)O[C@@H]3C)O[C@@H]2C)C[C@H](O)[C@@H]1O [Digoxin, reference compound] | <0.08 µM | 0.3 µM | < 0.08 µM | > 100 µM | 0.08 µM | >100 µM | > 100 µM | 0.04 µM | 0.35 µM | 0.61 µM | – | 0.4 µM | < 0.08 µM | 0.1 µM | 0.06 µM | 0.16 µM | 0.03 µM | – | – | – | TGI (U251 (CNS)): 0.10 µM; GI50 (U251 (CNS); U-251, 48 h): 0.02 µM; CC50 (SU8686 (Pancreas)): 0.63 µM; GI50 (SU8686 (Pancreas)): 0.03 µM; TGI (SU8686 (Pancreas)): 0.09 µM
C[C@]12CCC(=NOCCN)C=C1CCC1C2CC[C@@]2(C)C1CC[C@@H]2O (stereo partly drawn) [Compound 120, (1S,9aR,11aS)-17-hydroxy-10,13-dimethyl-6,7,8,9,10,11,12,13,14,15,16,17-dodecahydro-1H-cyclopenta[a]phenanthren-3(2H)-one O-2-aminoethyl oxime] | 11.68 µM | 21.7 µM | 4.13 µM | 97.2 µM | 7.14 µM | 25.19 µM | 67.4 µM | 5.49 µM | 10.74 µM | 68.5 µM | 6.77 µM | 24.1 µM | 7.04 µM | 14.85 µM | 23.51 µM | 76.3 µM | 6.39 µM | mostly single-digit micromolar GI50 action | reduced the viability and/or cell proliferation | strong inhibition of cell proliferation and viability | TGI (U251 (CNS); U251, SRB, 48 h): 27.92 µM; CC50 (SU8686 (Pancreas)): 23.1 µM; GI50 (SU8686 (Pancreas)): 7.45 µM; TGI (SU8686 (Pancreas)): 15.27 µM
C[C@]12CCC(=NOCCN)CC1CCC1C2CC[C@]2(C)C(=O)CCC12 (stereo partly drawn) [Compound 1, (10S,13S)-3-(2-aminoethoxyimino)-10,13-dimethyltetradecahydro-1H-cyclopenta[a]phenanthren-17(2H)-one] | – | – | – | – | – | – | – | – | – | – | – | – | – | – | – | – | – | nanomolar GI50 action | reduced the viability and/or cell proliferation | strong inhibition of cell proliferation and viability | –
C[C@]12CCC(=NOC3CCNC3)C=C1CCC1C2CC[C@]2(C)C(=O)CCC12 (stereo partly drawn) [Compound 61, (10R,13S)-10,13-dimethyl-3-(pyrrolidin-3-yloxyimino)-2,3,7,8,9,10,11,12,13,14,15,16-dodecahydro-1H-cyclopenta[a]phenanthren-17(6H)-one] | – | – | – | – | – | – | – | – | – | – | – | – | – | – | – | – | – | nanomolar GI50 action | reduced the viability and/or cell proliferation | strong inhibition of cell proliferation and viability | –
CC(=O)O[C@H]1C(=O)[C@@]2(C)[C@H]([C@H](OC(=O)c3ccccc3)[C@]3(O)C[C@H](OC(=O)[C@H](O)[C@@H](NC(=O)c4ccccc4)c4ccccc4)C(C)=C1C3(C)C)[C@]1(OC(C)=O)CO[C@@H]1C[C@@H]2O [Paclitaxel, reference compound] | 3.7685 µM | > 10 µM | < 0.1 µM | 5.18 µM | < 0.001 µM | 0.288 µM | 10.6 µM | 0.001 µM | 3.305 µM | 6.73 µM | < 0.001 µM | > 10 µM | < 0.1 µM | >10 µM | 0.852 µM | 12.3 µM | 0.053 µM | – | – | – | TGI (U251 (CNS); U251, SRB, 48 h): 1.745 µM; CC50 (SU8686 (Pancreas)): 16.5 µM; GI50 (SU8686 (Pancreas)): 0.008 µM; TGI (SU8686 (Pancreas)): 7.927 µM; DT/DC ([3]; day 24, intraperitoneal): −46,68%; post mortem analysis on excised tumors: tumor growth inhibition [3]: statistical significant tumor growth inhibition
